These results are taken from US20020082261A1, “PROPHYLACTIC OR THERAPEUTIC AGENTS FOR DISEASES HAIVNG VASCULAR DYSFUNCTION ASSOCIATED WITH INSULIN RESISTANCE” (priority 1998, published 2002).

Where a name gives a salt, the structure may show the parent alone.

The test system of data set [1] is superoxide anion (O2−) production level in thoracic aorta tissue sections. Description: Superoxide anion (O2−) production level in thoracic aorta tissue sections, lucigenin-enhanced chemiluminescence, after 8 weeks oral dosing. The settings on record: endothelium-separated sections EC (−), comparison among the 4 groups (CTR, CTR+BH4, FR, FR+BH4). The data set is classed as in vivo, Male Sprague-Dawley rats. The protocol:
Male Sprague-Dawley rats (150 g, supplied from Charles River) were used to prepare a model group with insulin resistance induced by fructose feed loading (hereinafter referred to as “FR group”) according to the procedure described by Hwang et al. (Hwang, I-H. et al., Hypertension 10:512, 1987). A control group grown with a starch feed (hereinafter referred to as “CTR group”) was also prepared (FR group: n=16; CTR group: n=16). FR group received a feed containing 67% (hereinafter meaning % by weight) carbohydrate (containing 98% fructose available from Oriental Yeast Co., Ltd.), 13% fat and 20% protein, while CTR group received a feed containing 58% carbohydrate, 12% fat and […]. […] After 8 weeks, the thoracic aorta was collected. For each group, endothelium-separated sections (EC (−)) and non-separated sections (EC (+)) were prepared and examined for superoxide anion (O2^−) production level, endothelial NOS (eNOS) activity and endothelium-dependent vasorelaxation.
Group-to-group statistic analyses were made by one-way ANOVA, with the significance level being p<0.05. Multiple comparison was made by Bonferronl/Dunn, with the significance level being p<0.05.
Measurement of O2^−production level was made by the lucigenin-enhanced chemiluminescence method (Ohara et al., J. Clin. Invest. 91: 2546, 1993).

For data set [2] the following is noted: as reported in Japanese Patent Public Disclosure No. 25323/84; cited from earlier work.
In a further data set the test system is rats. Nature of the data set: Acute toxicity via oral route in rats. The data set is classed as in vivo.

As to `C[C@H](O)[C@H](O)[C@H]1CNc2nc(N)[nH]c(=O)c2N1` [BH4, (6R)-L-erythro-5,6,7,8-tetrahydrobiopterin], the “O2− production level in EC (−)” value in data set [1] is given as “No significant difference”.
For the compound `C[C@H](O)[C@H](O)C1CNc2nc(N)[nH]c(=O)c2N1` (stereo partly drawn) [(6R,S)-5,6,7,8-tetrahydrobiopterin], the toxicity entry in data set [2] is given as “only slightly toxic”.
As to `C[C@H](O)[C@H](O)[C@H]1CNc2nc(N)[nH]c(=O)c2N1` [BH4 dihydrochloride, (6R)-L-erythro-5,6,7,8-tetrahydrobiopterin], in the data set on rats, the acute toxicity was ≥ 2 g/kg (body weight).
